Values quoted from earlier work, collected in article PMC5879685 (Proceedings of the National Academy of Sciences of the …, 2018).

SMILES | Effect on CNGC (CNGC) | Effect on PKG (PKG)
Nc1nc2c(ncn2[C@@H]2O[C@@H]3COP(O)(=S)O[C@H]3[C@H]2O)c(=O)[nH]1 (single isomer, unassigned) [B, Guanosine-3′,5′-cyclic monophosphorothioate, RP-isomer] | + | −
Nc1nc2c(ncn2[C@@H]2O[C@@H]3COP(=O)(O)O[C@H]3[C@H]2O)c(=O)[nH]1 [Compound A, Guanosine-3′,5′-cyclic monophosphate] | + | +
Nc1nc2c(nc(Br)n2[C@@H]2O[C@@H]3COP(O)(=S)O[C@H]3[C@H]2O)c(=O)[nH]1 (single isomer, unassigned) [C, 8-bromoguanosine-3′,5′-cyclic monophosphorothioate, RP-isomer] | + | −
